The subject of this assay is breast cancer cell line ZR-75-1. Briefly: Inhibition of proliferation of breast cancer cell line ZR-75-1 (CellTiter-Glo). Particulars: Homo sapiens, 240 h, proliferation of ZR-75-1 cells, 10 days of incubation, read-out: IC50 (KAT6A). The assay is classed as cell-based. The source says: Test Example 1: Experiment for Determining Inhibitory Effects of Compounds on Proliferation of Breast Cancer Cell Line ZR-75-1
ATP is an indicator of the metabolism of living cells. The CellTiter-Glo® Luminescent Cell Viability Assay is a homogeneous assay method for determining the number of viable cells by quantifying ATP.
• 1) ZR-75-1 (Cell Bank of Chinese Academy of Sciences, TCHul26) • 2) RPMI-1640 medium (Gibco, 11875-093) • 3) Fetal Bovine Serum, New Zealand (Gibco,10091-148) • 4) Penicillin-streptomycin (10,000 U/mL) (Gibco, 15140-122) • 5) Trypsin-EDTA (0.25%), containing phenol red (Gibco, 25200-072) • 6) DPBS (Shanghai BasalMedia, B210KJ) • 7) Corning® 96-well Clear Flat Bottom Ultra-Low Attachment Microplate (Corning, Cat. No. 3474) • 8) 330 μL 96 Holes Deep Well Plate, transparents, 96 Round Holes, V-shaped Bottom, Low Retention (Stellar Scientific, DP33VR-9-NS) • 9) Corning® 96-well solid white flat-bottom polystyrene microplate (Corning, Cat. No. 3917) • 10) CellTiter-Glo® Luminescent Cell Viability Assay (Promega, G7573) • 11) Countstar® BioMed automatic cell counter • 12) Trypan blue solution, 0.4% (Gibco, Cat. No. 15250061) • 13) 37° C. constant-temperature incubator (Thermo, FORMA STERI-CYCLE i160 LK) • 14) Biosafety cabinet (Thermo, 1379)
• 1) The formula of the complete medium for ZR-75-1 was as follows: 500 mL RPMI-1640+10% FBS+1% penicillin-streptomycin. • 2) Thirty minutes before cell plating, the complete medium, serum, trypsin, and DPBS for use in ZR-75-1 cell culture were pre-warmed in a water bath at 37° C. • 3) The ZR-75-1 cells were taken out of the incubator, and the medium was removed by pipetting. The cells were rinsed once with 5 mL of DPBS, and then the DPBS was discarded. • 4) The cells in the T75 culture flask were digested with 1-3 mL of (0.25%) trypsin-EDTA. After the trypsin was added, the culture flask was incubated in an incubator at 37° C. for 2-5 min, and dispersion was confirmed by microscopic examination. Tapping or agitating the culture flask was avoided to prevent disturbing the cells, which might cause cell clumping. • 5) 9 mL of the complete medium was added to terminate the digestion, thus forming a cell suspension, which was then mixed well by pipetting. • 6) Cell suspension counting: 20 μL of the cell suspension was pipetted and diluted with 20 µL of the 0.4% trypan blue solution (Gibco, Cat. No. 15250061). The total cell count and the percentage of cell viability were determined using the Countstar® BioMed automatic cell counter. Only cells with a cell viability of no less than 95% were used for the experiment. • 7) The concentration of the cell suspension was adjusted to 2000 cells/well, and the cell suspension was added to a 96-well cell culture plate at 80 μL/well. Treatment of Cells with Compounds • 1) Twenty-four hours after cell plating, the cell plate was taken out. • 2) Each compound was prepared with a complete medium. The stock solution was a 10 mM solution in DMSO, which was first diluted with the medium to 100 μM, then diluted to 1 μM, and finally subjected to a 5-fold serial dilution across a total of 9 concentration gradients. • 3) 20 μL of the compound diluted with the medium was added to each well of the cell culture plate, which already contained 80 μL of the medium. The final concentration started at 200 nM, followed by a 5-fold serial dilution across a total of 9 concentration gradients. Two replicate wells were set for each compound, and each plate could be used to test 3 compounds, with the DMSO content controlled within 0.5%. • 4) The culture medium was replenished once every three days with a complete medium containing the same concentration of the test compound, with 20 μL/well added each time.
After 10 days of incubation with the compound, the cell culture plate was taken out, and the CellTiter-Glo® reagent was added at 50 μL/well. […]
(In ATP-based viability assays light output follows the ATP content of the culture.)

A value given as a limit tells only on which side of the number the result lay.

What is called IC50 is the concentration that inhibits the measured activity by half. In the case of `COc1ccccc1S(=O)(=O)Nc1noc2cc(Cn3cccn3)cc(OC(F)F)c12` [Compound 11, N-(6-((1H-Pyrazol-1-yl)methyl)-4-(difluoromethoxy)benzo[d]isoxazol-3-yl)-2-methoxybenzenesulfonamide], the half-maximal inhibitory concentration (IC50) was in the range of 2 to 10 nM.
Turning to `COc1cc(Cn2cccn2)cc2onc(NS(=O)(=O)c3ccccc3OC3CCC3)c12` [Compound 1, N-(6-((1H-Pyrazol-1-yl)methyl)-4-methoxybenzo[d]isoxazol-3-yl)-2-cyclobutoxybenzenesulfonamide], the 50% inhibitory concentration (IC50) was in the range of 0.5 to 2 nM.
For `COc1c(F)c(Cn2cccn2)cc2onc(NS(=O)(=O)c3c(F)ccc4c3OCCC4(F)F)c12` [Compound 105, N-(6-((1H-Pyrazol-1-yl)methyl)-5-fluoro-4-methoxybenzo[d]isoxazol-3-yl)-4,4,7-trifluorochromane-8-sulfonamide], the half-maximal inhibitory concentration (IC50) is 10 to 50 nM.
The result for `CC(C)Oc1cc(Cn2cccn2)cc2onc(NS(=O)(=O)c3cc(C(C)(C)C)ccc3OC3CCC3)c12` [Compound 6, N-(6-((1H-Pyrazol-1-yl)methyl)-4-isopropoxybenzo[d]isoxazol-3-yl)-5-(tert-butyl)-2-cyclobutoxybenzenesulfonamide] reads 2 to 10 nM; that for `COc1ccc2c(c1S(=O)(=O)Nc1noc3cc(Cn4cccn4)c(F)c(OC)c13)OCCN2Cc1ccccc1` [Compound 112, N-(6-((1H-Pyrazol-1-yl)methyl)-5-fluoro-4-methoxybenzo[d]isoxazol-3-yl)-4-benzyl-7-methoxy-3,4-dihydro-2H-benzo[b][1,4]oxazine-8-sulfonamide], 2 to 10 nM; that for `COc1ccc2c(c1S(=O)(=O)Nc1noc3cc(Cn4cccn4)c(F)c(OC)c13)OCCC21SCCS1` [Compound 44, N-(6-((1H-Pyrazol-1-yl)methyl)-5-fluoro-4-methoxybenzo[d]isoxazol-3-yl)-7-methoxyspiro[chromane-4,2′-[1,3]dithiolane]-8-sulfonamide], under 0.5 nM.
Next, `COc1ccc2c(c1S(=O)(=O)Nc1noc3cc(Cn4cccn4)cc(OC)c13)OC(C)(C)O2` [Compound 18, N-(6-((1H-Pyrazol-1-yl)methyl)-4-methoxybenzo[d]isoxazol-3-yl)-5-methoxy-2,2-dimethylbenzo[d][1,3]dioxole-4-sulfonamide]: 2 to 10 nM; `COc1ccccc1S(=O)(=O)Nc1nsc2cc(Cn3cccn3)cc(OC)c12` [Compound 9, N-(6-((1H-Pyrazol-1-yl)methyl)-4-methoxybenzo[d]isothiazol-3-yl)-2-methoxybenzenesulfonamide]: at least 50 nM.
For the compound `COc1ccc2c(c1S(=O)(=O)Nc1noc3cc(Cn4cccn4)cc(OC)c13)OCCC21CCC1` [Compound 15, N-(6-((1H-Pyrazol-1-yl)methyl)-4-methoxybenzo[d]isoxazol-3-yl)-7-methoxyspiro[chromane-4,1′-cyclobutane]-8-sulfonamide], the IC50 was under 0.5 nM.
For the compound `COc1ccc2c(c1S(=O)(=O)Nc1noc3cc(Cn4cccn4)cc(Cl)c13)OCCC21SCCS1` [Compound 47, N-(6-((1H-Pyrazol-1-yl)methyl)-4-chlorobenzo[d]isoxazol-3-yl)-7-methoxyspiro[chromane-4,2′-[1,3]dithiolane]-8-sulfonamide], the IC50 lay within 0.5 to 2 nM.
The result for `COc1ccc2c(c1S(=O)(=O)Nc1noc3cc(Cn4cccn4)c(F)c(OC)c13)OCCC21CCCC1` [Compound 73, N-(6-((1H-Pyrazol-1-yl)methyl)-5-fluoro-4-methoxybenzo[d]isoxazol-3-yl)-7-methoxyspiro[chromane-4,1′-cyclopentane]-8-sulfonamide] reads 0.5 to 2 nM.
Next, `COc1ccc2c(c1S(=O)(=O)Nc1noc3cc(Cn4cccn4)cc(OC)c13)OCCC21SCCS1` [Compound 39, N-(6-((1H-Pyrazol-1-yl)methyl)-4-methoxybenzo[d]isoxazol-3-yl)-7-methoxyspiro[chromane-4,2′-[1,3]dithiolane]-8-sulfonamide]: under 0.5 nM; `COc1ccc2c(c1S(=O)(=O)Nc1noc3cc(Cn4cccn4)cc(Cl)c13)OCCC21CC1` [Compound 46, N-(6-((1H-Pyrazol-1-yl)methyl)-4-chlorobenzo[d]isoxazol-3-yl)-7-methoxyspiro[chromane-4,1′-cyclopropane]-8-sulfonamide]: 2 to 10 nM.
The result for `COc1cc(Cn2cccn2)cc2onc(NS(=O)(=O)c3c(F)ccc4c3OCCC4(F)F)c12` [Compound 103, N-(6-((1H-Pyrazol-1-yl)methyl)-4-methoxybenzo[d]isoxazol-3-yl)-4,4,7-trifluorochromane-8-sulfonamide] reads 10 to 50 nM; that for `COc1cc(Cn2cccn2)cc2onc(NS(=O)(=O)c3cc(C(C)C)ccc3OCC(F)F)c12` [Compound 10, N-(6-((1H-Pyrazol-1-yl)methyl)-4-methoxybenzo[d]isoxazol-3-yl)-2-(2,2-difluoroethoxy)-5-isopropylbenzenesulfonamide], 2 to 10 nM.
Consider `COc1cc(Cn2cccn2)cc2onc(NS(=O)(=O)c3cc(C(C)C)ccc3OC3CCC3)c12` [Compound 23, N-(6-((1H-Pyrazol-1-yl)methyl)-4-methoxybenzo[d]isoxazol-3-yl)-2-cyclobutoxy-5-isopropylbenzenesulfonamide], for which the IC50 lay in the range of 2 to 10 nM.
Next, `COc1cc(Cn2cccn2)cc2onc(NS(=O)(=O)c3cccc4c3OC(F)(F)O4)c12` [Compound 5, N-(6-((1H-Pyrazol-1-yl)methyl)-4-methoxybenzo[d]isoxazol-3-yl)-2,2-difluorobenzo[d][1,3]dioxole-4-sulfonamide]: at least 50 nM.
Next, `COc1ccc2c(c1S(=O)(=O)Nc1noc3cc(Cn4cccn4)c(F)c(OC)c13)OCCC21CC1` [Compound 43, N-(6-((1H-Pyrazol-1-yl)methyl)-5-fluoro-4-methoxybenzo[d]isoxazol-3-yl)-7-methoxyspiro[chromane-4,1′-cyclopropane]-8-sulfonamide]: under 0.5 nM; `COc1cc(Cn2cccn2)cc2onc(NS(=O)(=O)c3cc(C(C)(C)C)ccc3OC3CCC3)c12` [Compound 3, N-(6-((1H-Pyrazol-1-yl)methyl)-4-methoxybenzo[d]isoxazol-3-yl)-5-(tert-butyl)-2-cyclobutoxybenzenesulfonamide]: 2 to 10 nM; `COc1ccc2c(c1S(=O)(=O)Nc1noc3cc(Cn4cccn4)c(F)c(OC)c13)OCCC21CCC1` [Compound 72, N-(6-((1H-Pyrazol-1-yl)methyl)-5-fluoro-4-methoxybenzo[d]isoxazol-3-yl)-7-methoxyspiro[chromane-4,1′-cyclobutane]-8-sulfonamide]: 0.5 to 2 nM.
On to `COc1ccc2c(c1S(=O)(=O)Nc1noc3cc(Cn4cccn4)c(F)c(OC)c13)OCC=C2C` [Compound 106, N-(6-((1H-Pyrazol-1-yl)methyl)-5-fluoro-4-methoxybenzo[d]isoxazol-3-yl)-7-methoxy-4-methyl-2H-chromene-8-sulfonamide], for which the half-inhibitory concentration (IC50) was under 0.5 nM.
On to `COc1ccc2c(c1S(=O)(=O)Nc1noc3cc(Cn4cccn4)cc(OC)c13)OCCC21CCCC1` [Compound 26, N-(6-((1H-Pyrazol-1-yl)methyl)-4-methoxybenzo[d]isoxazol-3-yl)-7-methoxyspiro[chromane-4,1′-cyclopentane]-8-sulfonamide], for which the half-inhibitory concentration (IC50) is under 0.5 nM.
Turning to `COc1ccc2c(c1S(=O)(=O)Nc1noc3cc(Cn4cccn4)c(Cl)c(OC)c13)OCCO2` [Compound 30, N-(6-((1H-Pyrazol-1-yl)methyl)-5-chloro-4-methoxybenzo[d]isoxazol-3-yl)-6-methoxy-2,3-dihydrobenzo[b][1,4]dioxine-5-sulfonamide], the IC50 lay in the range of 10 to 50 nM.
